Data from publication PMC8847695 (Frontiers in Chemistry, 2022).

Experiments:
[1] = target: AAK1 (121-471) (Homo sapiens, UniProt Q2M2I8); assay: STD-NMR fragment screening, AAK1; type: binding; details: 1 mM fragment, 20 µM protein; hit if peak in difference spectrum three times higher than local noise
Method in brief: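 Saturation-transfer difference NMR was run at 25°C and 700 MHz with 20 µM protein, two fragments at 1 mM each, and 10% DMSO-d6. On-resonance saturation was at 0.5–0.6 ppm and off-resonance at 40 ppm, with a 3 s Gaussian-pulse train. A hit required a difference-spectrum peak at least three times the local noise.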

[2] = target: JNK3 (Homo sapiens, UniProt P53779); assay: ITC, JNK3; type: binding
JNK3, sequence (P53779 whole entry, species assumed, the tested form may be a part): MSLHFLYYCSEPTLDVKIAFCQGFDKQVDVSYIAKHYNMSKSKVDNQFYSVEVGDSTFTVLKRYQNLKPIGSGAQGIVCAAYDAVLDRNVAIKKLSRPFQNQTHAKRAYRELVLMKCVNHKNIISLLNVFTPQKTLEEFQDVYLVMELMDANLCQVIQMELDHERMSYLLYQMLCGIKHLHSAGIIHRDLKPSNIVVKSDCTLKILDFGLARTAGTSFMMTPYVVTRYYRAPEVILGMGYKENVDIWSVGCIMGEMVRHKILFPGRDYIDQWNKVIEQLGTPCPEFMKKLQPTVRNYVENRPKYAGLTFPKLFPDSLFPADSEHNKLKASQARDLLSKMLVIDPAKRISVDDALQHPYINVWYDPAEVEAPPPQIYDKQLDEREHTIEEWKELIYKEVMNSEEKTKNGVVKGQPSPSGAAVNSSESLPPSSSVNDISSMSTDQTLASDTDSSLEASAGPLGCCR
Procedure: (§1) The protein was buffer exchanged into 50 mM HEPES, 100 mM NaCl, 2 mM MgCl2, and 1 mM TCEP at pH 7.4. The protein was concentrated to 50–100 µM, and DMSO was added to a final concentration of 5% (^V/V). The fragments were dissolved in DMSO to yield a 100 mM stock solution, which was further diluted with buffer to yield a 5 mM solution also containing 5% (^V/V) DMSO. A MicroCal iTC200 (Malvern) instrument was used with the measuring cell set to 25°C, while the cooling jacket was set to 15°C. After a 120 s initial delay following temperature equilibration, a first injection with 0.5 µl over 2 s was done. Nineteen injections with 2 µl over 4 s were performed every 180 s ([Ruhmann et al., 2015]). The measurement was conducted using a needle stirring speed of 1,000 rpm and a reference heat rate of 10 μcal/s. Experiments were aborted, when the measuring cell was unable to reach a heat rate greater than 9 μcal/s during equilibration. Affinities were averaged from duplicates.

[3] = target: JNK2 (Homo sapiens, UniProt P45984); assay: ITC, JNK2; type: binding
JNK2, sequence (P45984 whole entry, species assumed): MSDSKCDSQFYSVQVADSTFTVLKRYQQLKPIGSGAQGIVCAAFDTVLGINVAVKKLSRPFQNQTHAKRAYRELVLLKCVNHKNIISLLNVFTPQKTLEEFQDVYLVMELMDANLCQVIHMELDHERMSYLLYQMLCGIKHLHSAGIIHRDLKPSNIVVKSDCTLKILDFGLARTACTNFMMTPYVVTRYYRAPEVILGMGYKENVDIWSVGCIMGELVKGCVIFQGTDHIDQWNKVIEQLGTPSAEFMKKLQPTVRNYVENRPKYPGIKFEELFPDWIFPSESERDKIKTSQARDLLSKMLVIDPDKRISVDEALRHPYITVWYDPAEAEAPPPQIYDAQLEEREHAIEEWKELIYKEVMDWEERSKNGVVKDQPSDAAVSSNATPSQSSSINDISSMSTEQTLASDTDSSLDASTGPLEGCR
Procedure: as §1

[4] = target: AAK1 (Homo sapiens, UniProt Q2M2I8); assay: ITC validation, AAK1; type: binding; details: ITC, 25°C, 5% DMSO, pH 7.4, duplicates
AAK1, sequence (Q2M2I8 46-315 limits assumed): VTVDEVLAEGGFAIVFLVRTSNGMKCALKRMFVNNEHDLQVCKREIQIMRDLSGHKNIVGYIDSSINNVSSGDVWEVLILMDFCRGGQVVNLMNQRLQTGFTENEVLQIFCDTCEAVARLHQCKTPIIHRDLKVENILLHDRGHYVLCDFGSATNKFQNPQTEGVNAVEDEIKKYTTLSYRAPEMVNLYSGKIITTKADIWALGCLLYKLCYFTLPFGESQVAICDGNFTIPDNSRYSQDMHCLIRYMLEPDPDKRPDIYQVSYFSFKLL
Procedure: as §1, with “Nineteen injections with 2 µl over 4 s were performed every 180 s ([Ruhmann et al., 2015]).” left out

[5] = GSH stability assay (HPLC); type: physicochemical; details: t1/2 > 20 h defined as sufficiently stable
Procedure: A 500 µM fragment solution in PBS buffer pH 7.4, 10% acetonitrile and 200 µM indoprofen as an internal standard, was added to 10 mM GSH solution in a 1:2 ratio. The reaction temperature was 40°C. […] The reaction of fragments with GSH was determined by measuring the decreasing area under the curve (AUC) of the compound relative to the internal standard indoprofen. The gradient was chosen depending on the polarity of fragments to be either one of the following: […]

AAK1 (121-471), sequence (Q2M2I8 46-315 limits assumed): as above

STD-NMR hit [1]: binds
Kd [2]: 130 µM
Kd [3]: 67 µM
Kd [4]: 6 µM
stability with GSH (in words) [5]: sufficiently stable
SMILES: Clc1ncnc2cc[nH]c12 [Fragment 9595, 4-chloro-5H-pyrrolo[3,2-d]pyrimidine]
